According to patent US12599136B2, “Substituted isophthalic acid diamides and their use as herbicides” (Bayer Aktiengesellschaft, priority 2020, dated 2026):

Columns and labels:
Assay type in all cases: in vivo
Abutilon theophrasti [1] = test: Pre-emergence herbicidal action against ABUTH; conditions: visual score after 3 weeks vs untreated controls
Procedure, shortened: (§1)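 Herbicidal effect was assessed 3 weeks after treatment by visual comparison with untreated controls, 100% denoting dead plants. Aqueous WP or EC preparations had been applied at 600 to 800 l/ha with 0.2% wetting agent to the soil covering freshly sown seeds.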

Alopecurus myosuroides [2] = test: Pre-emergence herbicidal action against ALOMY; conditions: visual score after 3 weeks vs untreated controls
Procedure, shortened: as §1

Amaranthus retroflexus [3] = test: Pre-emergence herbicidal action against AMARE; conditions: visual score after 3 weeks vs untreated controls
Procedure, shortened: as §1

Avena fatua = test: Pre-emergence herbicidal action against AVEFA; conditions: 80 g/ha; visual score after 3 weeks vs untreated controls
Procedure, shortened: as §1

Echinochloa crus-galli [4] = test: Pre-emergence herbicidal action against ECHCG; conditions: 80 g/ha; visual score after 3 weeks vs untreated controls
Procedure, shortened: as §1

Matricaria inodora [5] = test: Pre-emergence herbicidal action against MATIN; conditions: visual score after 3 weeks vs untreated controls
Procedure, shortened: as §1

Pharbitis purpurea [6] = test: Pre-emergence herbicidal action against PHBPU; conditions: 80 g/ha; visual score after 3 weeks vs untreated controls
Text: Seeds of monocotyledonous and dicotyledonous weed plants and crop plants are laid out in sandy loam soil in wood-fiber pots and covered with soil. The compounds of the invention, formulated in the form of wettable powders (WP) or as emulsion concentrates (EC), are then applied to the surface of the covering soil in the form of an aqueous suspension or emulsion at a water application rate equivalent to 600 to 800 l/ha, with addition of 0.2% wetting agent. After the treatment, the pots are placed in a greenhouse and kept under good growth conditions for the trial plants. The damage to the test plants is scored visually after a test period of 3 weeks by comparison with untreated controls (herbicidal activity in percent (%): 100% activity=the plants have died, 0% activity=like control plants). […] The tables below illustrate, in an illustrative manner, the post-emergence herbicidal action of the compounds of the invention, the herbicidal activity being stated in percent.

Setaria viridis [7] = test: Pre-emergence herbicidal action against SETVI; conditions: 80 g/ha
Procedure, shortened: as §1

Veronica persica [8] = test: Pre-emergence herbicidal action against VERPE; conditions: 80 g/ha
Procedure, shortened: as §1

Viola tricolor [9] = test: Pre-emergence herbicidal action against VIOTR
Procedure, shortened: as §1

Abutilon theophrasti [10] = test: Post-emergence herbicidal action against ABUTH
Procedure, shortened: (§2)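 Herbicidal effect was scored visually in percent after about 3 weeks in the greenhouse. Plants had been raised in sandy loam and treated post-emergence at the one-leaf stage with formulated compound at 600 to 800 l/ha water plus 0.2% wetting agent.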

Alopecurus myosuroides [11] = test: Post-emergence herbicidal action against ALOMY; conditions: 20 g/ha
Procedure, shortened: as §2

Amaranthus retroflexus [12] = test: Post-emergence herbicidal action against AMARE; conditions: visual assessment about 3 weeks after treatment
Procedure, shortened: as §2

Matricaria inodora [13] = test: Post-emergence herbicidal action against MATIN; conditions: 20 g/ha, visual assessment about 3 weeks after treatment
Procedure, shortened: as §2

Pharbitis purpurea [14] = test: Post-emergence herbicidal action against PHBPU; conditions: 20 g/ha, visual assessment about 3 weeks after treatment
Procedure, shortened: as §2

Setaria viridis [15] = test: Post-emergence herbicidal action against SETVI; conditions: visual assessment about 3 weeks after treatment
Procedure, shortened: as §2

Veronica persica [16] = test: Post-emergence herbicidal action against VERPE; conditions: 20 g/ha, visual assessment about 3 weeks after treatment
Procedure, shortened: as §2

Viola tricolor [17] = test: Post-emergence herbicidal action against VIOTR
Procedure, shortened: as §2

Echinochloa crus-galli [18] = test: Post-emergence herbicidal action against ECHCG; conditions: 20 g/ha, visual assessment about 3 weeks after treatment
Procedure, shortened: as §2

SMILES	Pre-emergence action against ABUTH (Abutilon theophrasti [1]; 20 g/ha)	Pre-emergence action against ABUTH (Abutilon theophrasti [1]; 80 g/ha)	Pre-emergence action against ALOMY (Alopecurus myosuroides [2]; 80 g/ha)	Pre-emergence action against AMARE (Amaranthus retroflexus [3]; 20 g/ha)	Pre-emergence action against AMARE (Amaranthus retroflexus [3]; 80 g/ha)	Pre-emergence action against MATIN (Matricaria inodora [5]; 80 g/ha)	Pre-emergence action against PHBPU (Pharbitis purpurea [6])	Pre-emergence action against SETVI (Setaria viridis [7])	Pre-emergence action against VERPE (Veronica persica [8])	Pre-emergence action against VIOTR (Viola tricolor [9]; 80 g/ha)	Post-emergence action against ABUTH (Abutilon theophrasti [10]; 5 g/ha)	Post-emergence action against ABUTH (Abutilon theophrasti [10]; 20 g/ha)	Post-emergence action against AMARE in % (Amaranthus retroflexus [12]; 5 g/ha)	Post-emergence action against AMARE in % (Amaranthus retroflexus [12]; 20 g/ha)	Post-emergence action against PHBPU in % (Pharbitis purpurea [14])	Post-emergence action against SETVI in % (Setaria viridis [15]; 5 g/ha)	Post-emergence action against SETVI in % (Setaria viridis [15]; 20 g/ha)	Post-emergence action against VERPE in % (Veronica persica [16])	Post-emergence action against VIOTR in % (Viola tricolor [17]; 20 g/ha)	other results
CCN(CC)C(=O)c1c(Br)ccc(C(=O)Nc2nnnn2CC)c1Cl [Example 2-200]	100%	100%	100%	100%	100%	100%	90%	100%	90%	100%	80%	100;; %	100%	100%	80%	100%	100%	90%	100%	Pre-emergence action against ALOMY (Alopecurus myosuroides [2]; 20 g/ha): 90%; Pre-emergence action against AVEFA (Avena fatua): 90%; Pre-emergence action against ECHCG (Echinochloa crus-galli [4]): 90%; Pre-emergence action against MATIN (Matricaria inodora [5]; 20 g/ha): 90%; Pre-emergence action against VIOTR (Viola tricolor [9]; 20 g/ha): 80%; Post-emergence action against ALOMY (Alopecurus myosuroides [11]): 100%; Post-emergence action against MATIN in % (Matricaria inodora [13]): 80;; %
CCN(CC)C(=O)c1c(Br)ccc(C(=O)Nc2nnnn2C)c1Cl [Example 1-200]	90%	100%	100%	90%	100%	100%	80%	100%	100%	100%	80%	90%	100%	100%	90%	80%	90%	90%	80%	Post-emergence action against ECHCG in % (Echinochloa crus-galli [18]): 100%; Post-emergence action against VIOTR in % (Viola tricolor [17]; 5 g/ha): 80%
